Results from patent US8017807B2, “Tetrahydroxy compound, method for preparing the tetrahydroxy compound, and photoreceptor using the tetrahydroxy compound” (Ricoh Company Limited, priority 2005, dated 2011).

Experiments:
[1] = Solubility to alcohol (methanol), visual observation; assay type: physicochemical; conditions: background section, no method given
[2] = as above; assay type: physicochemical; design: key to Solubility to methanol, solid content 5% by weight / Solubility to methanol, solid content 10% by weight / Solubility to methanol, solid content 20% by weight / Solubility to methanol, solid content 30% by weight / Solubility to methanol, solid content 40% by weight / Solubility to methanol, solid content 50% by weight / Solubility to methanol, solid content 60% by weight: ◯: The compound is perfectly dissolved in methanol, and the resultant liquid contains no solid material.; X: The compound is imperfectly dissolved in methanol and the resultant liquid contains a solid material or is opaque (i.e., is not transparent); conditions: for Solubility to methanol, solid content 5% by weight / Solubility to methanol, solid content 10% by weight / Solubility to methanol, solid content 20% by weight / Solubility to methanol, solid content 30% by weight / Solubility to methanol, solid content 40% by weight / Solubility to methanol, solid content 50% by weight / Solubility to methanol, solid content 60% by weight: methanol solution, one hour at room temperature, visual
Procedure: Each of the compound of Example 1 and comparative compounds (6) to (9) was dissolved in methanol to prepare methanol solutions thereof having a solid content of 5%, 10%, 20%, 30%, 40%, 50% or 60% by weight. Alter the solutions were allowed to settle for one hour at room temperature, the solutions were visually observed to determine the solubility of the compounds to methanol. The solubility to methanol was graded as follows:
◯: The compound is perfectly dissolved in methanol, and the resultant liquid contains no solid material.
X: The compound is imperfectly dissolved in methanol and the resultant liquid contains a solid material or is opaque (i.e., is not transparent).

[3] = Film formability when mixed 1:1 with alcohol-soluble polyamide resin (CM8000), blade-coated layer; assay type: physicochemical; design: key to Film formability: ◯: The resultant layer is transparent.; X: The resultant layer is opaque due to crystallization of the compounds or bad compatibility with the resin; conditions: for Film formability: 1:1 by weight with polyamide resin CM8000, solid content 20% by weight, 20 μm layer on aluminum plate, dried at 23° C.; for Film formability (in words): mixed with an alcohol-soluble resin
Procedure: In addition, each of the compound of Example 1 and comparative compounds (6) to (9) was mixed with an alcohol-soluble polyamide resin (CM8000 from Toray Industries, Inc.) in a weight ratio of 1:1 such that the solid content of the mixture is 20% by weight. Each of the mixtures was coated on an aluminum plate by a blade coating method and then dried at room temperature (23° C.) to prepare a layer with a thickness of 20 μm. The thus prepared layers were visually observed to determine the film formability of the layers. The film formability was graded as follows:
◯: The resultant layer is transparent.
X: The resultant layer is opaque due to crystallization of the compounds or bad compatibility with the resin.

[4] = Crosslinked outermost layer of photoreceptor from methanol coating liquid; image formation; conditions: with methyl trimethoxy silane in methanol
Procedure: Preparation of Crosslinked Charge Transport Layer Using Sol-Gel Method
The following components were mixed.
The mixture was agitated for one hour at room temperature to perform a reaction. Then 53.4 mg of tris(2,4-pentanedionate)aluminum (III) was added to the mixture to prepare a coating liquid including methanol as a solvent.
The coating liquid was coated on the above-prepared charge transport layer by a spray coating method and then dried to form an outermost layer with a thickness of 2 μm. The photoreceptor was heated for 1 hour at 130° C. to crosslink the outermost layer.
The photoreceptor was set in the main body of the image forming apparatus (IMAGIO NEO) to produce images. The resultant images had good image qualities.
The procedure for preparation of the outermost layer in Applied Example 1 was repeated except that the compound of Example 1 was replaced with each of the comparative compounds (6) to (9).

Solubility to methanol (present inventors' study of prior-art compounds) [1]	Solubility to methanol (in words) [2]	Solubility to methanol, solid content 5% by weight [2]	Solubility to methanol, solid content 10% by weight [2]	Solubility to methanol, solid content 20% by weight [2]	Solubility to methanol, solid content 30% by weight [2]	Solubility to methanol, solid content 40% by weight [2]	Solubility to methanol, solid content 50% by weight [2]	Solubility to methanol, solid content 60% by weight [2]	Film formability [3]	Preparation of outermost layer coating liquid in methanol [4]	SMILES	Film formability (in words) [3]
insufficient	–	–	–	–	–	–	–	–	–	–	Oc1cccc(N(c2ccccc2)c2ccc(-c3ccc(N(c4ccccc4)c4cccc(O)c4)cc3)cc2)c1 [N,N′-diphenyl-N,N′-bis(3-hydroxyphenyl)-[1,1′-biphenyl]-4,4′-diamine]	–
–	good solubility to methanol	◯	◯	◯	◯	◯	◯	◯	◯	–	Cc1ccc(N(c2ccc(C)cc2)c2ccc(C=C(c3ccc(OCC(O)CO)cc3)c3ccc(OCC(O)CO)cc3)cc2)cc1 (stereo not shown) [Compound of Ex. 1, N-{4-[2,2-bis(4-(2,3-dihydroxypropyloxy)phenyl)vinyl]phenyl}-N,N-bis(4-tolyl)amine]	good film formability
–	as good solubility to methanol	–	–	–	–	–	–	–	–	–	OCC(O)COc1ccc(N(c2ccccc2)c2ccc(-c3ccc(N(c4ccccc4)c4ccc(OCC(O)CO)cc4)cc3)cc2)cc1 (stereo not shown) [Example 2, N,N′-diphenyl-N,N′-bis[4-(2,3-dihydroxypropyloxy)phenyl]benzidine]	as good solubility to methanol and film formability as the compound of Example 1

Second part, the molecule before the results:

SMILES	Solubility to methanol (present inventors' study of prior-art compounds) [1]	Solubility to methanol (in words) [2]	Solubility to methanol, solid content 5% by weight [2]	Solubility to methanol, solid content 10% by weight [2]	Solubility to methanol, solid content 20% by weight [2]	Solubility to methanol, solid content 30% by weight [2]	Solubility to methanol, solid content 40% by weight [2]	Solubility to methanol, solid content 50% by weight [2]	Solubility to methanol, solid content 60% by weight [2]	Film formability [3]	Preparation of outermost layer coating liquid in methanol [4]	Film formability (in words) [3]
Cc1ccc(N(c2ccc(C)cc2)c2ccc(C(C)(c3ccc(O)cc3)c3ccc(O)cc3)cc2)cc1 [1,1-bis(4-hydroxyphenyl)-1-[4-(paraditolylamino)phenyl]ethane]	insufficient	–	–	–	–	–	–	–	–	–	–	–
Oc1cccc(N(c2ccccc2)c2ccc(-c3ccc(N(c4ccccc4)c4cccc(O)c4)cc3)cc2)c1 [Comp. compound (7)]	–	poor solubility to methanol	◯	◯	◯	X	X	X	X	X	coating liquids could not be prepared	–
CCc1ccc(N(c2ccc(CCO)cc2)c2ccc(CCO)cc2)cc1C [Comp. compound (8)]	–	–	◯	◯	◯	◯	X	X	X	X	coating liquid could be prepared	–
Cc1ccc(N(c2ccc(C)cc2)c2ccc(C(C)(c3ccc(O)cc3)c3ccc(O)cc3)cc2)cc1 [Comp. compound (6)]	–	poor solubility to methanol	◯	◯	◯	◯	X	X	X	X	coating liquids could not be prepared	–
Cc1ccc(N(c2ccc(C)cc2)c2ccc(C=C(c3ccc(OCCO)cc3)c3ccc(OCCO)cc3)cc2)cc1 [Comp. compound (9)]	–	poor solubility to methanol	X	X	X	X	X	X	X	–	coating liquids could not be prepared	–
